Activity calls are given as the source filed them. The rule behind the calls is not given here.
Columns and labels:
[1] = Cmax in male ICR mouse at 10 mg/kg, po administered as single dose and measured after 24 hrs; type: ADME, organism-based; conditions: in vivo
[2] = target: T1, Ubiquitin carboxyl-terminal hydrolase 1/WD repeat-containing protein 48 (Homo sapiens) (UniProt O94782+Q8TAF3); assay: Inhibition of USP1/UAF1 in human Olaparib-resistant MDA-MB-436 cell assessed as increase in Ub-PCNA level at 20 nM incubated for 24 hrs by Western blot analysis; type: cell-based
[3] = target: T1, Ubiquitin carboxyl-terminal hydrolase 1/WD repeat-containing protein 48 (Homo sapiens); assay: Inhibition of USP1/UAF1 in human NCI-H1299 cells assessed as increase in Ub-PCNA levels at 20 nM incubated for 24 hrs by Western blot analysis; type: cell-based

- Cmax [1]: 4780 ng/mL
- inhibition [2]: Active
- Activity [3]: Active
SMILES: COc1ncnc(C2CC2)c1-c1ncc2ccc(=O)n(Cc3ccc(-c4nc(C(F)(F)F)cn4C(C)C)cc3)c2n1

Reference: ChEMBL document CHEMBL5579832, “Design, synthesis, and biological evaluation of pyrido[2,3-d]pyrimidin-7(8H)-one derivatives as potent USP1 inhibitors” (Eur J Med Chem, 2024)
